Measurements as given in patent publication US9938249B2, “Anti-amyloid compounds containing benzofurazan” (Treventis Corporation, priority 2014, dated 2018).

Molecular target: Terminally biotinylated beta-amyloid (Aβ42) (Homo sapiens, UniProt P05067)
Assay: Aβ42 biotinylated (biotin-AB) oligomerization assay, NeutrAvidin capture ELISA
Assay type: biochemical
Settings: approximate value; 1 hr oligomerization at room temperature; read-out: IC50 Aβ 42-bio
Description: Aβ42 Biotinylated Assay Terminally biotinylated beta-amyloid (biotin-AB) was dissolved in HFIP at the concentration of 1 mg/ml and aliquoted to 50 μl/tube in 0.65 ml colored microfuge tubes (Fisher 02-681-248). The aliquots were diluted immediately by adding 450 μl of HFIP to 0.1 mg/ml. Approximately 46 ul (containing approximately 4.6 ug of biotin-AB) were taken from a tube, 100 ul of HFIP added, vortexed, and dried to a thin film under an N2 stream. 100 μl of trifluoroacetic acid (TFA) was added and vortexed. After 10 minute incubation at room temperature in a hood, resulting in disaggregation of seeds, the sample was vortexed again and dried again to a thin film under an N2 stream. 100 μl of HFIP was added, mixed, and the biotin-AB sample was dried for a third time under an N2 stream to remove residual TFA. The treated biotin-AB was dissolved in DMSO to a final peptide concentration of […] (SOX). An ELISA “capture” plate (Costar 9018) was coated with 50 μl of 1 μg/ml NeutrAvidin™ (NA) in 10 mM sodium phosphate buffer, pH 7.5. (NeutrAvidin can be prepared as 1 mg/ml (1000×) in milliQ water/10% glycerol and stored at −80° C. before use.) The plate was sealed plate with adhesive film and stored at 4° C. overnight, then blocked for 2 hours (unsealed) at room temperature with 200 μl/well OFB+0.1% v/v Tween 20. The “capture” plate was allowed to come to room temperature. Several dilutions of test compound were prepared with 100% DMSO, according to the desired concentration to be tested. 2.5 μl of diluted test compound was pipetted into the bottom of each well of a 96-well “dilution” polypropylene plate (Costar 3365), to which was added 250 ul of Oligomer Formation Buffer (OFB: 20 mM sodium phosphate, pH 7.5-150 mM NaCl). To begin oligomerization, 2 μl/well of the biotin-AB was added to the bottom of each well of a 96-well “reaction” polypropylene plate (Costar 3365) and 100 ul of each well of the “dilution” plate was transferred to the “reaction” plate (final concentration of DMSO being up to 1%). The reaction plate was sealed and incubated for 1 hr at room temperature without shaking. The reaction was then stopped by the addition of 50 ul of 0.3% Tween 20 in water. The “capture” plate blocking solution was removed, and 50 ul of each well of the “reaction” plate was transferred to each well of the “capture” plate. The “capture” plate was sealed and incubated for 2 hours at room temperature with shaking at 150 rpm. The “capture” plate was then washed on a plate washer (3×) with 200 ul/well TBST (20 mM Tris-HCL, pH 7.5/150 mM NaCl/0.1% Tween 20). 50 ul of Streptavidin-horseradish […] (1:20,000 dilution) in OFB+0.1% Tween 20 was added to each well, the “capture” plate was sealed and incubated for 1 hr with shaking at 150 rpm. As before, the plate was washed, then 100 ul of TMB/H2O2 substrate solution was added to each well. After 5-10 minutes, 100 ul of 1% v/v sulfuric acid was added and the absorbance of each well was read at 450 nm using a standard plate reader. Data is summarized in the table below; numbers given in parenthesis for the Aβ 40 Thioflavin T assays are the values in that particular experiment for compound ID 1027, given as the first entry in this table for structural comparison. “IC50 Aβ42-bio” column refers to the approximate value of the Aβ42 biotinylated assay IC50 in micromoles/L.

Chain of Terminally biotinylated beta-amyloid (Aβ42) (P05067 672-713, species assumed): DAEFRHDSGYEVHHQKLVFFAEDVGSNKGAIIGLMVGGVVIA

| SMILES | IC50 [µM] |
| --- | --- |
| N#Cc1cc(N2CC(CN3CCOCC3)C2)c2nonc2c1 [compound 1570, 7-(3-(morpholinomethyl)azetidin-1-yl) benzo[c][1,2,5]oxadiazole-5-carbonitrile] | > 20 |
| OCc1cc(N2CC(CN3CCOCC3)C2)c2nonc2c1 [compound 1571, (7-(3-(morpholinomethyl)azetidin-1-yl)benzo[c][1,2,5]oxadiazol-5-yl)methanol] | > 20 |
| OCc1ccccc1-c1cc(N2CC(CN3CCOCC3)C2)c2nonc2c1 [compound 1572] | > 20 |
| COc1ccc(-c2cc(N3CC(CN4CCOCC4)C3)c3nonc3c2)cc1OC [compound 1573, 6-(3,4-dimethoxyphenyl)-4-(3-(morpholinomethyl)azetidin-1-yl) benzo[c][1,2,5]oxadiazole] | 12.9 |
| N#Cc1ccc(-c2cc(N3CC(CN4CCOCC4)C3)c3nonc3c2)cc1 [compound 1574, 4-(7-(3-(morpholinomethyl)azetidin-1-yl)benzo[c][1,2,5]oxadiazol-5-yl)benzonitrile] | 16.5 |
| Clc1cc(Cl)cc(-c2cc(N3CC(CN4CCOCC4)C3)c3nonc3c2)c1 [compound 1575, 6-(3,5-dichlorophenyl)-4-(3-(morpholinomethyl)azetidin-1-yl) benzo[c][1,2,5]oxadiazole] | 4 |
| NC(=O)c1cccc(-c2cc(N3CC(CN4CCOCC4)C3)c3nonc3c2)c1 [compound 1576, 3-(7-(3-(morpholinomethyl)zetidin-1-yl)benzo[c][1,2,5]oxadiazol-5-yl) benzamide] | 46 |
| N#Cc1cccc(-c2cc(N3CC(CN4CCOCC4)C3)c3nonc3c2)c1 [compound 1577, 3-(7-(3-(morpholinomethyl)azetidin-1-yl)benzo[c][1,2,5]oxadiazol-5-yl)benzonitrile] | 14.8 |
| COc1ccc(-c2cc(N3CC(CN4CCOCC4)C3)c3nonc3c2)cc1Cl [compound 1578, 6-(3-chloro-4-methoxyphenyl)-4-(3-(morpholinomethyl)azetidin-1-yl) benzo[c][1,2,5]oxadiazole] | 2.9 |
| NC(=O)c1ccc(-c2cc(N3CC(CN4CCCC4)C3)c3nonc3c2)cc1 [compound 1579, 4-(7-(3-(pyrrolidin-1-ylmethyl)azetidin-1-yl)benzo[c][1,2,5]oxadiazol-5-yl)benzamide] | 96 |
| c1ccc(-c2cc(N3CC(CN4CCCC4)C3)c3nonc3c2)nc1 [compound 1580, 6-(Pyridin-2-yl)-4-(3-(pyrrolidin-1-ylmethyl)azetidin-1-yl)benzo[c][1,2,5]oxadiazole] | > 20 |
| COc1cc(-c2cc(N3CC(CN4CCOCC4)C3)c3nonc3c2)ccc1F [compound 1584, 6-(4-fluoro-3-methoxyphenyl)-4-(3-(morpholinomethyl)azetidin-1-yl) benzo[c][1,2,5]oxadiazole] | 7 |
| COc1ccc(-c2cc(N3CC(CN4CCOCC4)C3)c3nonc3c2)cc1F [compound 1585, 6-(3-fluoro-4-methoxyphenyl)-4-(3-(morpholinomethyl)azetidin-1-yl) benzo[c][1,2,5]oxadiazole] | 5.8 |
| N#Cc1ccccc1-c1cc(N2CC(CN3CCOCC3)C2)c2nonc2c1 [compound 1586, 2-(7-(3-(morpholinomethyl)azetidin-1-yl)benzo[c][1,2,5]oxadiazol-5-yl)benzonitrile] | 41.9 |
| OC(c1ccnc(-c2cc(N3CC(CN4CCCC4)C3)c3nonc3c2)c1)C(F)(F)F (stereo not drawn) [compound 1587, 2,2,2-trifluoro-1-(2-(7-(3-(pyrrolidin-1-ylmethyl)azetidin-1-yl)benzo[c][1,2,5]oxadiazol-5-yl)pyridin-4-yl)ethan-1-ol] | 12.3 |
| Fc1cc(F)cc(-c2cc(N3CC(CN4CCOCC4)C3)c3nonc3c2)c1 [compound 1588, 6-(3,5-difluorophenyl)-4-(3-(morpholinomethyl)azetidin-1-yl) benzo[c][1,2,5]oxadiazole] | 30.2 |
| OCc1ccc(-c2cc(N3CC(CN4CCOCC4)C3)c3nonc3c2)cc1 [compound 1592] | 15.1 |

| SMILES | IC50 [µM] |
| --- | --- |
| OCc1cnc(-c2cc(N3CC(CN4CCOCC4)C3)c3nonc3c2)s1 [compound 1594] | > 20 |
| OC(c1cnc(-c2cc(N3CC(CN4CCCC4)C3)c3nonc3c2)s1)C(F)(F)F (stereo not drawn) [compound 1597] | 7.5 |
| OCc1cccc(-c2cc(N3CC(CN4CCOCC4)C3)c3nonc3c2)c1 [compound 1598] | 9.9 |
| OCc1coc(-c2cc(N3CC(CN4CCOCC4)C3)c3nonc3c2)n1 [compound 1606, (2-(7-(3-(morpholinomethyl)azetidin-1-yl)benzo[c][1,2,5]oxadiazol-5-yl)oxazol-4-yl)methanol] | > 20 |
| OCc1cnc(-c2cc(N3CC(CN4CCOCC4)C3)c3nonc3c2)o1 [compound 1607, (2-(7-(3-(morpholinomethyl)azetidin-1-yl)benzo[c][1,2,5]oxadiazol-5-yl)oxazol-5-yl)methanol] | > 20 |
| OC(c1coc(-c2cc(N3CC(CN4CCOCC4)C3)c3nonc3c2)n1)C(F)(F)F (stereo not drawn) [compound 1608, 2,2,2-trifluoro-1-(2-(7-(3-(morpholinomethyl)azetidin-1-yl)benzo[c][1,2,5]oxadiazol-5-yl)oxazol-4-yl)ethan-1-ol] | 8.6 |
| NC(=O)c1cccc(-c2cc(N3CC(CN4CCCC4)C3)c3nonc3c2)c1 [compound 1609, 3-(7-(3-(pyrrolidin-1-ylmethyl)azetidin-1-yl)benzo[c][1,2,5]oxadiazol-5-yl)benzamide] | 2.4 |
| NC(=O)c1ccc(-c2cc(N3CC(CN4CCOCC4)C3)c3nonc3c2)cc1 [compound 1610, 4-(7-(3-(morpholinomethyl)azetidin-1-yl)benzo[c][1,2,5]oxadiazol-5-yl)benzamide] | > 20 |
| COc1cc(N2CC(CN3CCOCC3)C2)c2nonc2c1 [compound 1611, 6-methoxy-4-(3-(morpholinomethyl)azetidin-1-yl)benzo[c][1,2,5]oxadiazole] | > 20 |
| CSc1cc(N2CC(CN3CCOCC3)C2)c2nonc2c1 [compound 1612, 6-(methylthio)-4-(3-(morpholinomethyl)azetidin-1-yl) benzo[c][1,2,5]oxadiazole] | > 20 |
| COc1cc(N2CC(CN3CCOCC3)C2)c2nonc2c1C [compound 1613, 5-methoxy-4-methyl-7-(3-(morpholinomethyl)azetidin-1-yl)benzo[c][1,2,5]oxadiazole] | > 20 |
| CN(C)C(=O)c1ccccc1-c1cc(N2CC(CN3CCOCC3)C2)c2nonc2c1 [compound 1615] | > 20 |
| CC(C)(O)c1ccc(-c2cc(N3CC(CN4CCOCC4)C3)c3nonc3c2)cc1 [compound 1616] | 16.2 |
| CC(C)(O)c1cccc(-c2cc(N3CC(CN4CCOCC4)C3)c3nonc3c2)c1 [compound 1617] | 14.6 |
| OC(c1ccc(-c2cc(N3CC(CN4CCOCC4)C3)c3nonc3c2)cn1)C(F)(F)F (stereo not drawn) [compound 1618, 2,2,2-trifluoro-1-(5-(7-(3-(morpholinomethyl)azetidin-1-yl)benzo[c][1,2,5]oxadiazol-5-yl)pyridin-2-yl)ethan-1-ol] | 4.98 |
| OC(c1cccc(-c2cc(N3CC(CN4CCOCC4)C3)c3nonc3c2)n1)C(F)(F)F (stereo not drawn) [compound 1619, 2,2,2-trifluoro-1-(6-(7-(3-(morpholinomethyl)azetidin-1-yl)benzo[c][1,2,5]oxadiazol-5-yl)pyridin-2-yl)ethan-1-ol] | 11.3 |
